Reference: ChEMBL document CHEMBL1909046, “DrugMatrix in vitro pharmacology data”

How the values were obtained:
[1] = DRUGMATRIX: Sodium/nucleoside co-transporter radioligand binding (ligand: nitrobenzylthioinosine); assay type: cell membranes, Cavia porcellus, Dunkin-Hartley, Cerebral cortex, Membrane; conditions: Not Active = under 50% inhibition at 10 µM
Thromboxane-A synthase = target: T1, Thromboxane-A synthase (Homo sapiens, UniProt P24557); test: biochemical; assay type: tissue-based, Platelet; conditions: platelet;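 further: enzyme inhibition assay with PGH2 supplied as substrate; in other assays of this panel Not Active means under 50% inhibition at 10 µM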
T1 sequence (P24557 whole entry): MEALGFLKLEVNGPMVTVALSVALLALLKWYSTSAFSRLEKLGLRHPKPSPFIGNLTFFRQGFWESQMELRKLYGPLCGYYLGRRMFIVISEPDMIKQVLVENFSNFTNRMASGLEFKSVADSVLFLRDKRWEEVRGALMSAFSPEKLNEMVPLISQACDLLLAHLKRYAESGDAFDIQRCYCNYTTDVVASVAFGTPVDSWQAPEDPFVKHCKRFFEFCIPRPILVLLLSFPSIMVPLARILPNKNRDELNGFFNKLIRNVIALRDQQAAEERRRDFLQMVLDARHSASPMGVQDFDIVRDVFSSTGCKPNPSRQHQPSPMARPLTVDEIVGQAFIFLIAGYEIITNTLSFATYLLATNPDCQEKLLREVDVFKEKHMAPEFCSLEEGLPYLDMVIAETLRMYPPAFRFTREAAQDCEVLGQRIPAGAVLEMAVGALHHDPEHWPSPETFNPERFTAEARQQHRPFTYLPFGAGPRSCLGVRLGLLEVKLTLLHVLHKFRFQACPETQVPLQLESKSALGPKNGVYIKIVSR

[2] = target: C-C chemokine receptor type 5 (Homo sapiens, UniProt P51681); assay type: cell membranes, Membrane; conditions: hek293; further: in other assays of this panel Not Active means under 50% inhibition at 10 µM
D(3) dopamine receptor = D(3) dopamine receptor (Homo sapiens, UniProt P35462); test: DRUGMATRIX: Dopamine D3 radioligand binding (ligand: [3H] Spiperone); assay type: cell membranes, CHO, Membrane; conditions: cho
[3] = target: Sodium-dependent dopamine transporter (Homo sapiens, UniProt Q01959); test: DRUGMATRIX: Dopamine Transporter radioligand binding (ligand: [125I] RTI-55); assay type: cell membranes, CHO-K1, Membrane; conditions: cho-k1; Not Active = under 50% inhibition at 10 µM
[4] = DRUGMATRIX: Glutamate, AMPA radioligand binding (ligand: [3H] AMPA); assay type: cell membranes, Rattus norvegicus, Wistar, Cerebral cortex, Membrane; conditions: Not Active = under 50% inhibition at 10 µM
Melanocortin receptor 4 = Melanocortin receptor 4 (Homo sapiens, UniProt P32245); assay type: cell membranes, Membrane; conditions: hek293; further: in other assays of this panel Not Active means under 50% inhibition at 10 µM
[5] = target: T2, Muscarinic acetylcholine receptor M4 (Homo sapiens, UniProt P08173); assay type: cell membranes, CHO-K1, Membrane; conditions: cho-k1; further: in other assays of this panel Not Active means under 50% inhibition at 10 µM
T2 sequence (P08173 whole entry): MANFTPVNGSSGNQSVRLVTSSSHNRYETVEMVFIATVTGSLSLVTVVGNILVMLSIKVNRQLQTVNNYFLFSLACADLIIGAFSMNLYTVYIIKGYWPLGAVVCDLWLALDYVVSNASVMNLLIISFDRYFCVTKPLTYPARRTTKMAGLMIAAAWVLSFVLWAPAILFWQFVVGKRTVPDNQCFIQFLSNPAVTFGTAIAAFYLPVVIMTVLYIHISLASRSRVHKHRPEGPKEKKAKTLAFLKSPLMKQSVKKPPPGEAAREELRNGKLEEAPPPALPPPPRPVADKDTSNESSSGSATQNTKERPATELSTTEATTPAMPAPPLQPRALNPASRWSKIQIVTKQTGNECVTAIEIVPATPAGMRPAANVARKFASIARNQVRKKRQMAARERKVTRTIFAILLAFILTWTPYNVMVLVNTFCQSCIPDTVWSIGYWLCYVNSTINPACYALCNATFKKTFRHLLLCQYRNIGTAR

[6] = DRUGMATRIX: Platelet-Derived Growth Factor (PDGF) radioligand binding (ligand: [125I] PDGF); assay type: cell-based; conditions: nih3t3; Not Active = under 50% inhibition at 10 µM
[7] = DRUGMATRIX: Purinergic P2X radioligand binding (ligand: [3H] alpha, beta-Methylene-ATP); assay type: cell membranes, Oryctolagus cuniculus, New Zealand albino, Urinary bladder, Membrane; conditions: Not Active = under 50% inhibition at 10 µM
Adenosine receptor A2a = Adenosine receptor A2a (Homo sapiens, UniProt P29274); test: DRUGMATRIX: Adenosine A2A radioligand binding (ligand: […]); assay type: cell membranes, HEK293, Membrane; conditions: hek293; Not Active = under 50% inhibition at 10 µM
Cytochrome P450 2D6 = Cytochrome P450 2D6 (Homo sapiens, UniProt P10635); conditions: bti-tn-5b1-4; further: in other assays of this panel Not Active means under 50% inhibition at 10 µM
Estrogen receptor beta = Estrogen receptor beta (Homo sapiens, UniProt Q92731); conditions: sf9; further: in other assays of this panel Not Active means under 50% inhibition at 10 µM
Glucocorticoid receptor = target: T3, Glucocorticoid receptor (Homo sapiens, UniProt P04150); conditions: hela s3; further: in other assays of this panel Not Active means under 50% inhibition at 10 µM
T3 sequence (P04150 whole entry): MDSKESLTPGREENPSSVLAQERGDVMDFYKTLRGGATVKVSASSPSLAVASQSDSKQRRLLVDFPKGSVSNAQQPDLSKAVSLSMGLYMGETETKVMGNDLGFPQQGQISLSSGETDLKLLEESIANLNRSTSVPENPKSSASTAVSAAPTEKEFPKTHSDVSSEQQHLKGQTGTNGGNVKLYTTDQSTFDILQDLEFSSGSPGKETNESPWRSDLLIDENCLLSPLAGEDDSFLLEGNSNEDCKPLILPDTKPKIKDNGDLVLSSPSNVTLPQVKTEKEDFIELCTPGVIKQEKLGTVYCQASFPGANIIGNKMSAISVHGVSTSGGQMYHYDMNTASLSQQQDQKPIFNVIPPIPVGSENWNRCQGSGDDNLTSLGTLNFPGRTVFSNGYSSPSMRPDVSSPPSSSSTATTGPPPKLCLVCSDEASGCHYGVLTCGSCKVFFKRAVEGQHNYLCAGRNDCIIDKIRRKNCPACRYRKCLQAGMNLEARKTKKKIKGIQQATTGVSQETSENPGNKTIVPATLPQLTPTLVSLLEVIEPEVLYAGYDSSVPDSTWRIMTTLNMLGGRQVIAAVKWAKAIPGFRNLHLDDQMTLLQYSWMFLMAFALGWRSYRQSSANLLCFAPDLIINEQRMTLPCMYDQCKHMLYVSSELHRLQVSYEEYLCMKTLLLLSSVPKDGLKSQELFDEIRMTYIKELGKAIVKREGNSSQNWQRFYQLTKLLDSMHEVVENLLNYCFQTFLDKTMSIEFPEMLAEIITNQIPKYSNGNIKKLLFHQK

Sequence of D(3) dopamine receptor (P35462 whole entry): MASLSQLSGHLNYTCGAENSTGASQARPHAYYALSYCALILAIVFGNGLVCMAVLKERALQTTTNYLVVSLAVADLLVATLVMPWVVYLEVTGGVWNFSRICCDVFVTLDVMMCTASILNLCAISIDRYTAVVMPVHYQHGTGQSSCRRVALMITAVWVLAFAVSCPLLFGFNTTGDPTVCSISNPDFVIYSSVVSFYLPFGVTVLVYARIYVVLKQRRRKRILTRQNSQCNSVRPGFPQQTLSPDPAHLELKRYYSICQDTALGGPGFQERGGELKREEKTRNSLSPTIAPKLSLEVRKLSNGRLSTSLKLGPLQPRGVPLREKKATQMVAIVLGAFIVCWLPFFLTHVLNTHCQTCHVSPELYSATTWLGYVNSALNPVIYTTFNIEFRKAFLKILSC
Sequence of Sodium-dependent dopamine transporter (Q01959 whole entry): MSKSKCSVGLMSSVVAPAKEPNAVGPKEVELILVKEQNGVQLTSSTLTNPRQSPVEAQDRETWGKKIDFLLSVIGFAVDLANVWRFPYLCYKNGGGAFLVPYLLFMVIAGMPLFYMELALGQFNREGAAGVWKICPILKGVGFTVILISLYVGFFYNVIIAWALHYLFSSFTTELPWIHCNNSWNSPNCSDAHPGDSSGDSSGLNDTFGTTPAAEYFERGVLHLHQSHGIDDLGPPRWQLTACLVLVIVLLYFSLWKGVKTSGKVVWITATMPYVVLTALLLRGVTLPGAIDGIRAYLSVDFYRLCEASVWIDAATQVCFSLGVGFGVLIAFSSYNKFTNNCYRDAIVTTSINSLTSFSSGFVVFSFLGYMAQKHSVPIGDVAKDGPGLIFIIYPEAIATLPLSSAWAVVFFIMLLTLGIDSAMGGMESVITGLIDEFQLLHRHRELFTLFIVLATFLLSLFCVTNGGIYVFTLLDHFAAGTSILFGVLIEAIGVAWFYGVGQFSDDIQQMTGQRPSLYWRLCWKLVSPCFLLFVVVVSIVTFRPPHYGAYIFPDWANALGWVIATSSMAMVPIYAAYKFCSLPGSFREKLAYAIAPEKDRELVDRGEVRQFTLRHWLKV
Sequence of C-C chemokine receptor type 5 (P51681 whole entry): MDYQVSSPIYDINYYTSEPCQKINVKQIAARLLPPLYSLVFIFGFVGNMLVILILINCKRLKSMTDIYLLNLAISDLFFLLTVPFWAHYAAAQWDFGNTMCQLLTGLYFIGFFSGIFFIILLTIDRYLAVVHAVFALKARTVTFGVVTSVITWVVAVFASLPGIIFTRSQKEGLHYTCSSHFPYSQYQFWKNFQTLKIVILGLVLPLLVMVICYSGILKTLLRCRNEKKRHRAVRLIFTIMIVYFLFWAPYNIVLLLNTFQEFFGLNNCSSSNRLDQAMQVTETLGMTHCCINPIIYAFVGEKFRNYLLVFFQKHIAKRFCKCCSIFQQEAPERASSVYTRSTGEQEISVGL
Sequence of Adenosine receptor A2a (P29274 whole entry): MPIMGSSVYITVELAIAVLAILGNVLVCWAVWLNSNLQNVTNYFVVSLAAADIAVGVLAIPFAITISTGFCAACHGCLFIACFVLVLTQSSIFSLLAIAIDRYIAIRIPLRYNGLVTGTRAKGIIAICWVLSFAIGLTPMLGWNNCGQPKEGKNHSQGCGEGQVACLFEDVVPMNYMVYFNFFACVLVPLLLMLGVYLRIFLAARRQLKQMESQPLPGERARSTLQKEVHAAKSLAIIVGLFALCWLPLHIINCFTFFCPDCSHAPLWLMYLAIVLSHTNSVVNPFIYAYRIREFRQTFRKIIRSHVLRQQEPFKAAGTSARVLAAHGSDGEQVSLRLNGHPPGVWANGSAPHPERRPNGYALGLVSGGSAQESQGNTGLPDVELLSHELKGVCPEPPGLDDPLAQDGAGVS
Sequence of Melanocortin receptor 4 (P32245 whole entry): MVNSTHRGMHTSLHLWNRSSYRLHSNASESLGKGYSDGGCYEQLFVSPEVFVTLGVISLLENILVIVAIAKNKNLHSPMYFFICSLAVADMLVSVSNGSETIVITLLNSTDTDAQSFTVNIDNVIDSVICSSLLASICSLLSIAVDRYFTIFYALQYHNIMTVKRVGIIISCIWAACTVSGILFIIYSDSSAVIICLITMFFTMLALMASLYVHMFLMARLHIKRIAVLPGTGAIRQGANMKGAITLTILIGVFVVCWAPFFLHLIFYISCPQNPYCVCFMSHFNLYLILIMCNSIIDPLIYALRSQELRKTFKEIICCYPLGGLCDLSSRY
Sequence of Cytochrome P450 2D6 (P10635 whole entry): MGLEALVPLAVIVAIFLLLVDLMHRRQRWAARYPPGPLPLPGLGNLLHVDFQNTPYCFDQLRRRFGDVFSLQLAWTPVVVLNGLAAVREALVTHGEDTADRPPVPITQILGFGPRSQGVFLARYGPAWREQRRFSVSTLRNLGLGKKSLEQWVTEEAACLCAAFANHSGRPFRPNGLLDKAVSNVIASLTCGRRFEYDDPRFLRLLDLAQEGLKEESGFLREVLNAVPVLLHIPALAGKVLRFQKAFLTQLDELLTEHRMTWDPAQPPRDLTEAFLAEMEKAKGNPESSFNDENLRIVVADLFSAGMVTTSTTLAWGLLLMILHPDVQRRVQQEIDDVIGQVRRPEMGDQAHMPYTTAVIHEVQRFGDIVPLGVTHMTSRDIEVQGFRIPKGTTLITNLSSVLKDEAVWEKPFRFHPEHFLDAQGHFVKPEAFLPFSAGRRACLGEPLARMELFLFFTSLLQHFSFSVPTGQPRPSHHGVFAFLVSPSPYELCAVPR
Sequence of Estrogen receptor beta (Q92731 whole entry): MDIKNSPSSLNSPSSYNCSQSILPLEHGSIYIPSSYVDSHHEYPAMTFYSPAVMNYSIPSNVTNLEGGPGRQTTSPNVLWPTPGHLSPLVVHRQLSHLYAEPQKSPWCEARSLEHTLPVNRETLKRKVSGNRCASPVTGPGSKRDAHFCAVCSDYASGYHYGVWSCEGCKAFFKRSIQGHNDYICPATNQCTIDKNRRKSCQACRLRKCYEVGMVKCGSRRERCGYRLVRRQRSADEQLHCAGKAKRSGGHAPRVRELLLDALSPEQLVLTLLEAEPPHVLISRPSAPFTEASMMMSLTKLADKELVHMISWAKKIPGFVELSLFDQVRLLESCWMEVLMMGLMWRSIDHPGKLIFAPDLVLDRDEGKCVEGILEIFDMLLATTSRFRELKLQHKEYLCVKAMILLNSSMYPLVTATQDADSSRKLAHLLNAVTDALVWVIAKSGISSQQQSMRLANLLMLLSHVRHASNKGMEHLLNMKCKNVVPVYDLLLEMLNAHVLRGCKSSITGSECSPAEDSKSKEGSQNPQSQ

CCc1cccc2c3c([nH]c12)C(CC)(CC(=O)O)OCC3 (configuration not stated) [ETODOLAC]
Not Active: IC50 [1] | Ki [1] | IC50 (Thromboxane-A synthase) | IC50 [2] | IC50 (D(3) dopamine receptor) | IC50 [3] | IC50 [4] | Ki [4] | IC50 (Melanocortin receptor 4) | IC50 [5] | IC50 [6] | Ki [6] | IC50 [7] | Ki [7] | IC50 (Adenosine receptor A2a) | IC50 (Cytochrome P450 2D6) | Ki (Cytochrome P450 2D6) | IC50 (Estrogen receptor beta)

Oc1cccc2cccnc12 [OXYQUINOLINE]
Not Active: IC50 [1] | Ki [1] | IC50 (Thromboxane-A synthase) | IC50 [2] | IC50 (D(3) dopamine receptor) | IC50 [3] | IC50 [4] | Ki [4] | IC50 (Melanocortin receptor 4) | IC50 [5] | IC50 [6] | Ki [6] | IC50 [7] | Ki [7] | IC50 (Adenosine receptor A2a) | IC50 (Cytochrome P450 2D6) | Ki (Cytochrome P450 2D6) | IC50 (Estrogen receptor beta)

CN1C(C(=O)Nc2ccccn2)=C(O)c2ccccc2S1(=O)=O [PIROXICAM]
Not Active: IC50 [1] | Ki [1] | IC50 (Thromboxane-A synthase) | IC50 [2] | IC50 (D(3) dopamine receptor) | IC50 [3] | IC50 [4] | Ki [4] | IC50 (Melanocortin receptor 4) | IC50 [5] | IC50 [6] | Ki [6] | IC50 [7] | Ki [7] | IC50 (Adenosine receptor A2a) | IC50 (Cytochrome P450 2D6) | Ki (Cytochrome P450 2D6) | IC50 (Glucocorticoid receptor)

CC(C)(Oc1ccc(CCNC(=O)c2ccc(Cl)cc2)cc1)C(=O)O [BEZAFIBRATE]
Not Active: IC50 [1] | Ki [1] | IC50 (Thromboxane-A synthase) | IC50 [2] | IC50 (D(3) dopamine receptor) | IC50 [3] | IC50 [4] | Ki [4] | IC50 (Melanocortin receptor 4) | IC50 [5] | IC50 [6] | Ki [6] | IC50 [7] | Ki [7] | IC50 (Adenosine receptor A2a) | IC50 (Cytochrome P450 2D6) | Ki (Cytochrome P450 2D6) | IC50 (Glucocorticoid receptor)

CC=CC(=O)N(CC)c1ccccc1C
Not Active: IC50 [1] | Ki [1] | IC50 (Thromboxane-A synthase) | IC50 [2] | IC50 (D(3) dopamine receptor) | IC50 [3] | IC50 [4] | Ki [4] | IC50 (Melanocortin receptor 4) | IC50 [5] | IC50 [6] | Ki [6] | IC50 [7] | Ki [7] | IC50 (Adenosine receptor A2a) | IC50 (Cytochrome P450 2D6) | Ki (Cytochrome P450 2D6) | IC50 (Glucocorticoid receptor)

CC(C)n1c(/C=C/C(O)CC(O)CC(=O)O)c(-c2ccc(F)cc2)c2ccccc21 (configuration not stated) [FLUVASTATIN]
Not Active: IC50 [1] | Ki [1] | IC50 (Thromboxane-A synthase) | IC50 [2] | IC50 (D(3) dopamine receptor) | IC50 [3] | IC50 [4] | Ki [4] | IC50 (Melanocortin receptor 4) | IC50 [5] | IC50 [6] | Ki [6] | IC50 [7] | Ki [7] | IC50 (Adenosine receptor A2a) | IC50 (Cytochrome P450 2D6) | Ki (Cytochrome P450 2D6) | IC50 (Glucocorticoid receptor)

COc1ccc2c(c1)c(CC(=O)OCC(=O)O)c(C)n2C(=O)c1ccc(Cl)cc1 [ACEMETACIN]
Not Active: IC50 [1] | Ki [1] | IC50 (Thromboxane-A synthase) | IC50 [2] | IC50 (D(3) dopamine receptor) | IC50 [3] | IC50 [4] | Ki [4] | IC50 (Melanocortin receptor 4) | IC50 [5] | IC50 [6] | Ki [6] | IC50 [7] | Ki [7] | IC50 (Adenosine receptor A2a) | IC50 (Cytochrome P450 2D6) | Ki (Cytochrome P450 2D6) | IC50 (Glucocorticoid receptor)

CC1=Nc2ccc(Cl)cc2S(=O)(=O)N1 [DIAZOXIDE]
Not Active: IC50 [1] | Ki [1] | IC50 (Thromboxane-A synthase) | IC50 [2] | IC50 (D(3) dopamine receptor) | IC50 [3] | IC50 [4] | Ki [4] | IC50 (Melanocortin receptor 4) | IC50 [5] | IC50 [6] | Ki [6] | IC50 [7] | Ki [7] | IC50 (Adenosine receptor A2a) | IC50 (Cytochrome P450 2D6) | Ki (Cytochrome P450 2D6) | IC50 (Glucocorticoid receptor)

NCC1(CC(=O)O)CCCCC1 [GABAPENTIN]
Not Active: IC50 [1] | Ki [1] | IC50 (Thromboxane-A synthase) | IC50 [2] | IC50 (D(3) dopamine receptor) | IC50 [3] | IC50 [4] | Ki [4] | IC50 (Melanocortin receptor 4) | IC50 [5] | IC50 [6] | Ki [6] | IC50 [7] | Ki [7] | IC50 (Adenosine receptor A2a) | IC50 (Cytochrome P450 2D6) | Ki (Cytochrome P450 2D6) | IC50 (Glucocorticoid receptor)
